Test system: MDA-MB-231 human breast cancer cells
Experiment: Cell proliferation assay (CellTiter-Glo, 72 hours treatment)
Assay type: cell-based
Details: Homo sapiens; MDA-MB-231 cells, 72 hours at 37° C., CellTiter-Glo; read-out: MDA-MB-231 cell proliferation assay (IC50)
Protocol: Human tumor cell lines were cultured in the appropriate media (DMEM and RPMI) supplemented with penicillin G (100 U/ml), streptomycin (100 μg/ml), 10% FBS in a humidified atmosphere of 5% CO2 maintained at 37° C. Exponentially growing cells were seeded at 2,500 cells/well in 96 well plates prior to drug treatment. The following day, cells were treated with either DMSO (vehicle control) or eIF4A inhibitors at the appropriate dose for 72 hours at 37° C. Following compound treatment, cell proliferation was assessed by CellTiter-Glo assay (Promega, Madison Wis.) according to the manufacturer's protocol. Dose-response curves were fitted by non-linear regression (sigmoidal dose response model) using KaleidaGraph (Synergy Software, Reading Pa.) and IC50 values were calculated.
To this end, IC50 values of less than 100 nM are labelled as “+++”, from 100 nM to 1000 nM are labelled as “++”, and greater than 1000 nM are labelled as “+” (NA means “not available”).

Structure (SMILES)	IC50
COc1cncc2c1[C@]1(O)[C@H](O)[C@H](CNCCO)[C@@H](c3ccccc3)[C@]1(c1ccc(C#N)cc1)O2 (racemic) [79F, Rac-4-((4bS,5R,6S,7S,7aR)-4b,5-dihydroxy-6-(((2-hydroxyethyl)amino)methyl)-4-methoxy-7-phenyl-5,6,7,7a-tetrahydro-4bH-cyclopenta[4,5]furo[2,3-c]pyridin-7a-yl)benzonitrile]	> 1000 nM
COC(=O)[C@@]12C[C@@H]1[C@@]1(O)c3ncc(Cl)cc3O[C@@]1(c1ccc(Br)cc1)[C@@H]2c1ccccc1 (racemic) [24F, rac-methyl (5aR,6R,6aS,7aS,7bR)-5a-(4-bromophenyl)-3-chloro-7b-hydroxy-6-phenyl-5a,7,7a,7b-tetrahydrocyclopropa[4′,5′]cyclopenta[1′,2′:4,5]furo[3,2-b]pyridine-6a(6H)-carboxylate]	> 1000 nM
COc1cncc2c1[C@]1(O)[C@@H](CN3CCOCC3)[C@H](CO)[C@@H](c3ccccc3)[C@]1(c1ccc(C#N)cc1)O2 (racemic) [180F, Rac-4-((4bR,5R,6R,7S,7aR)-4b-hydroxy-6-(hydroxymethyl)-4-methoxy-5-(morpholino-methyl)-7-phenyl-4b,5,6,7-tetrahydro-7aH-cyclopenta[4,5]furo[2,3-c]pyridin-7a-yl)benzonitrile]	< 100 nM
O=C1O[C@@H]2[C@H]1[C@@H](c1ccccc1)[C@]1(c3ccc(Br)cc3)Oc3cc(Cl)cnc3[C@]21O (racemic) [169F, Rac-(2aR,3S,3aR,8bS,8cR)-3a-(4-bromophenyl)-6-chloro-8b-hydroxy-3-phenyl-3,3a,8b,8c-tetrahydrooxeto[3″,2″:4′,5′]cyclopenta[1′,2′:4,5]furo[3,2-b]pyridin-2(2aH)-one]	> 1000 nM
COc1nc(Cl)cc2c1[C@]1(O)[C@H](O)[C@H](C(=O)N(C)C)[C@@H](c3ccccc3)[C@]1(c1ccc(Br)cc1)O2 (racemic) [137F, Rac-(5aR,6S,7R,8R,8aS)-5a-(4-bromophenyl)-3-chloro-8,8a-dihydroxy-1-methoxy-N,N-dimethyl-6-phenyl-5a,7,8,8a-tetrahydro-6H-cyclopenta[4,5]furo[3,2-c]pyridine-7-carboxamide]	< 100 nM
CNC[C@H]1[C@@H](O)[C@@]2(O)c3c(cc(C#N)nc3OC)O[C@@]2(c2ccc(C#N)cc2)[C@@H]1c1ccccc1 (racemic) [225F, Rac-(5aR,6S,7S,8R,8aS)-5a-(4-cyanophenyl)-8,8a-dihydroxy-1-methoxy-7-((methylamino)methyl)-6-phenyl-5a,7,8,8a-tetrahydro-6H-cyclopenta[4,5]furo[3,2-c]pyridine-3-carbonitrile]	< 100 nM
COc1nc(C#N)cc2c1[C@]1(O)[C@H](O)[C@H](CN(C)C)[C@@H](c3ccccc3)[C@]1(c1ccc(C(F)F)cc1)O2 (racemic) [146F, Rac-(5aR,6S,7S,8R,8aS)-5a-(4-(difluoromethyl)phenyl)-7-((dimethylamino)methyl)-8,8a-dihydroxy-1-methoxy-6-phenyl-5a,7,8,8a-tetrahydro-6H-cyclopenta[4,5]furo[3,2-c]pyridine-3-carbonitrile]	< 100 nM
COc1cncc2c1[C@]1(O)[C@H](O)[C@H](CN3[C@@H]4CC[C@H]3COC4)[C@@H](c3ccccc3)[C@]1(c1ccc(C#N)cc1)O2 (single isomer, unassigned) [265F]	100 to 1000 nM
Cc1ccc([C@@]23Oc4cc(Cl)cnc4[C@]2(O)[C@H](O)[C@H](C(=O)N(C)C)[C@H]3c2ccccc2)cc1 (single isomer, unassigned) [7F]	100 to 1000 nM
CN(C)C(=O)[C@H]1[C@@H](O)[C@@]2(O)c3ncc(Cl)cc3O[C@@]2(c2ccc(C#N)cc2)[C@@H]1c1ccccc1 (single isomer, unassigned) [3F]	< 100 nM
COc1cncc2c1[C@]1(O)[C@H](O)[C@H](CN3CCN(C(C)=O)CC3)[C@@H](c3ccccc3)[C@]1(c1ccc(C#N)cc1)O2 (racemic) [194F, Rac-4-((4bS,5R,6S,7S,7aR)-6-((4-acetylpiperazin-1-yl)methyl)-4b,5-dihydroxy-4-methoxy-7-phenyl-4b,5,6,7-tetrahydro-7aH-cyclopenta[4,5]furo[2,3-c]pyridin-7a-yl)benzonitrile]	> 1000 nM
COc1cncc2c1[C@]1(O)[C@H](O)[C@H](C(=O)N(C)C3COC3)[C@@H](c3ccccc3)[C@]1(c1ccc(Br)cc1)O2 (racemic) [237F, Rac-(4bS,5R,6R,7S,7aR)-7a-(4-bromophenyl)-4b,5-dihydroxy-4-methoxy-N-methyl-N-(oxetan-3-yl)-7-phenyl-4b,6,7,7a-tetrahydro-5H-cyclopenta[4,5]furo[2,3-c]pyridine-6-carboxamide]	< 100 nM
COc1cc2c(c(OC)n1)[C@]1(O)[C@H](O)[C@H](CN(C)C)[C@@H](c3ccccc3)[C@]1(c1ccc(C#N)cc1)O2 (single isomer, unassigned) [231F]	< 100 nM
COc1nc(Cl)cc2c1[C@]1(O)[C@H](O)[C@H](C(=O)N3CC(C(F)F)C3)[C@@H](c3ccccc3)[C@]1(c1ccc(Br)cc1)O2 (racemic) [215F, Rac-((5aR,6S,7R,8R,8aS)-5a-(4-bromophenyl)-3-chloro-8,8a-dihydroxy-1-methoxy-6-phenyl-5a,7,8,8a-tetrahydro-6H-cyclopenta[4,5]furo[3,2-c]pyridin-7-yl)(3-(difluoromethyl)azetidin-1-yl)methanone]	< 100 nM
CN(C)C[C@H]1[C@@H](O)[C@@]2(O)c3ncc(Cl)cc3O[C@@]2(c2ccc(C(F)(F)F)cc2)[C@@H]1c1ccccc1 (single isomer, unassigned) [109F]	100 to 1000 nM
N#Cc1ccc([C@@]23Oc4cc(Cl)cnc4[C@]2(O)[C@@H](CO)C[C@H]3c2ccccc2)cc1 (racemic) [167F, Rac-4-((5aR,6S,8R,8aR)-3-chloro-8a-hydroxy-8-(hydroxymethyl)-6-phenyl-6,7,8,8a-tetrahydro-5aH-cyclopenta[4,5]furo[3,2-b]pyridin-5a-yl)benzonitrile]	100 to 1000 nM
CN(C)C(=O)[C@@H]1[C@@H](c2ccccc2)[C@]2(c3ccc(C#N)cc3)Oc3cc(Cl)cnc3[C@]2(O)[C@@]1(C)O (racemic) [33Fb, Rac-(5aR,6S,7R,8S,8aS)-3-chloro-5a-(4-cyanophenyl)-8,8a-dihydroxy-N,N,8-trimethyl-6-phenyl-5a,7,8,8a-tetrahydro-6H-cyclopenta[4,5]furo[3,2-b]pyridine-7-carboxamide]	> 1000 nM
C#CC1C[C@@H](c2ccccc2)[C@]2(c3ccc(Br)cc3)Oc3cc(Cl)cnc3[C@]12O (mixture of isomers) [48F, Rac-(5aR,6S,8aR)-5a-(4-bromophenyl)-3-chloro-8-ethynyl-6-phenyl-5a,6,7,8-tetrahydro-8aH-cyclopenta[4,5]furo[3,2-b]pyridin-8a-ol]	> 1000 nM
COC(=O)C1(F)[C@@H](O)[C@@]2(O)c3ncc(Cl)cc3O[C@@]2(c2ccc(C#N)cc2)[C@@H]1c1ccccc1 (mixture of isomers) [59F, Rac-methyl (5aR,6S,8S,8aS)-3-chloro-5a-(4-cyanophenyl)-7-fluoro-8,8a-dihydroxy-6-phenyl-5a,7,8,8a-tetrahydro-6H-cyclopenta[4,5]furo[3,2-b]pyridine-7-carboxylate]	> 1000 nM
COc1cncc2c1[C@]1(O)[C@@H](CNC(C)(C)C)[C@H](CO)[C@@H](c3ccccc3)[C@]1(c1ccc(Br)cc1)O2 (racemic) [226F, Rac-(4bR,5R,6R,7S,7aR)-7a-(4-bromophenyl)-5-((tert-butylamino)methyl)-6-(hydroxymethyl)-4-methoxy-7-phenyl-5,6,7,7a-tetrahydro-4bH-cyclopenta[4,5]furo[2,3-c]pyridin-4b-ol]	< 100 nM
CN(C)C(=O)[C@H]1[C@@H](O)[C@@]2(O)c3ncc(Cl)cc3O[C@@]2(c2ccc(Cl)cc2)[C@@H]1c1ccccc1 (single isomer, unassigned) [11F]	100 to 1000 nM
COc1cncc2c1[C@]1(O)[C@H](O)[C@H](C(=O)NCC(C)(C)O)[C@@H](c3ccccc3)[C@]1(c1ccc(Br)cc1)O2 (racemic) [253F, Rac-(4bS,5R,6R,7S,7aR)-7a-(4-bromophenyl)-4b,5-dihydroxy-N-(2-hydroxy-2-methylpropyl)-4-methoxy-7-phenyl-4b,6,7,7a-tetrahydro-5H-cyclopenta[4,5]furo[2,3-c]pyridine-6-carboxamide]	< 100 nM
C[C@H]1[C@@H](O)[C@@]2(O)c3ncc(Cl)cc3O[C@@]2(c2ccc(Br)cc2)[C@@H]1c1ccccc1 (racemic) [57F, Rac-(5aR,6S,7R,8R,8aS)-5a-(4-bromophenyl)-3-chloro-7-methyl-6-phenyl-5a,6,7,8-tetrahydro-8aH-cyclopenta[4,5]furo[3,2-b]pyridine-8,8a-diol]	> 1000 nM
CN(C)C(=O)[C@H]1[C@@H](O)[C@@]2(O)c3nn(C)c(Cl)c3O[C@@]2(c2ccc(Br)cc2)[C@@H]1c1ccccc1 (racemic) [37F, Rac-(4aR,5S,6R,7R,7aS)-4a-(4-bromophenyl)-3-chloro-7,7a-dihydroxy-N,N,2-trimethyl-5-phenyl-2,4a,5,6,7,7a-hexahydrocyclopenta[4,5]furo[3,2-c]pyrazole-6-carboxamide]	> 1000 nM
N#Cc1ccc([C@@]23Oc4cc(Cl)cnc4[C@]2(O)[C@@H](O)[C@H](CN2CCCC2)[C@H]3c2ccccc2)cc1 (racemic) [41Fc, rac-4-((5aR,6S,7S,8S,8aS)-3-chloro-8,8a-dihydroxy-6-phenyl-7-(pyrrolidin-1-ylmethyl)-6,7,8,8a-tetrahydro-5aH-cyclopenta[4,5]furo[3,2-b]pyridin-5a-yl)benzonitrile]	> 1000 nM

— US10577378B2, “EIF4A-inhibiting compounds and methods related thereto” (eFFECTOR Therapeutics, Inc., priority 2015, dated 2020)
